“Also recorded” adds a separate entry of the source.

Assay type in all cases: biochemical
The target of assay [1] is chymotrypsin-like activity of the immunoproteasome core particle (iCP) (Homo sapiens, UniProt P28062). Nature of the assay: Kinetic assay, CT-L FRET reporter with immunoproteasome. The note with it: 25 μM compound. Here is the method: Compounds 1, 2, and 3 were screened with the immunoproteasome in triplicate using the CT-L FRET reporter.
(§1) To each well was added 40 μL 20 μM CT-L FRET reporter (in Tris-HCl, 50 mM, pH 7.7). To the reporter background wells was added 5 μL Tris-HCl and 5 μL 1:1 Tris-HCl:DMSO. Similarly, to the control wells was added 5 μL 1:1 Tris-HCl:DMSO. To the test wells was added 2.5 μL Tris-HCl and 2.5 μL of a 500 μM solution of the compound of interest in DMSO. […] Immediately prior to running the assay on the Synergy 4 Plate Reader, 5 μL purified 26S proteasome (62.5 μg/mL in Tris-HCl) was added to the control and test wells.
(§2) The assay was performed using the Synergy 4 plate reader as described for the general screening kinetic assay procedure.

In assay [2] the target is T1, chymotrypsin-like activity of the 20S CP (Homo sapiens, UniProt P28074).
T1 construct: 5 μL purified 20S proteasome (90 nM in Tris-HCl) was added to the control and test wells
The assay is described as follows: Kinetic assay, Suc-LLVY-AMC reporter hydrolysis by purified 20S CP. The note with it: 25 μM compound, triplicate; hit = at least 50% increase. Here is the method:
Plate preparation for the kinetic assay was performed similarly for all assays. All 96-well plates contained the following in triplicate: reporter background, containing reporter only, and control wells, containing reporter and purified 20S CP. It was determined that each well will contain a total volume of 50 μL. To each well was added 40 μL of the coumarin or FRET reporters (in Tris-HCl, 50 mM, pH 7.7). To the reporter background wells was added 7.5 μL Tris-HCl and 2.5 μL of the solvent in which the compound of interest was dissolved or diluted. Similarly, to the control wells was added 2.5 μL Tris-HCl and 2.5 μL of the solvent in which the compound of interest was dissolved or diluted. To the test wells was added 2.5 μL Tris-HCl and 2.5 μL of the compound of interest at a predetermined concentration. Immediately prior to running the assay on the Synergy 4 Plate Reader, 5 μL purified 20S proteasome (90 nM in Tris-HCl) was added to the control and test wells.
The Synergy 4 Plate Reader was set to heat the plate at 37° C. and read fluorescence every 2 min over a 40 min period. The excitation and emission wavelengths were set according to the reporter. For the FRET reporter, the excitation and emission wavelengths were set to 335 nm and 493 nm, respectively, corresponding to the excitation and emission wavelengths of the Edans fluorophore. […]
Sodium dodecyl sulfate (SDS) was used to test the effect stimulating the 20S proteasome has on the hydrolysis of the FRET reporters. The appropriate concentration of SDS to use in the kinetic assay was determined using the small chymotrypsin-like activity reporter, Suc-LLVY-AMC (SEQ ID NO: 4). […] In triplicate, the following final concentrations of SDS were analyzed for the effect each has on the activity of the 20S proteasome: 4000 μM, 2000 μM, 1000 μM, 500 μM, 250 μM, 125 μM, and 0 μM, the basal activity of the 20S proteasome. […] Immediately prior to reading the plate with the Synergy 4 plate reader, 5 μL purified 20S proteasome (90 nM in Tris-HCl) was added to the wells at a final concentration of 9 nM per well.
The Synergy 4 Plate Reader was set to heat the plate at 37° C. and read fluorescence every 2 min over a 1 hr period. […] The resulting data in relative fluorescence units (RFU) was analyzed using GraphPad Prism and was plotted against time in minutes. […] Based on the resulting curve and the hyperbolic curve obtained using 1000 μM SDS (FIG. 11b), it was determined that 500 μM SDS was the appropriate concentration to use to test the effect stimulating the 20S proteasome has on the hydrolysis of the FRET reporters.
Stimulation of the 20S proteasome with SDS was determined using both the coumarin and FRET reporters for the chymotrypsin-like and trypsin-like activities of the 20S CP. […]

Assay [3] concerns the target T2, chymotrypsin-like activity of the 26S proteasome (Homo sapiens, UniProt P28074).
T2 construct: 5 μL purified 26S proteasome (62.5 μg/mL in Tris-HCl) was added to the control and test wells
The assay is described as follows: Kinetic assay, CT-L FRET reporter with 26S proteasome. The note with it: 25 μM compound. Here is the method: Compounds 1, 2, and 3 were screened with the 26S proteasome in triplicate using the CT-L FRET reporter.
as §1, §2

As to `C[C@H]1[C@H](C)CC[C@]2(C(=O)O)CC[C@]3(C)C(=CC[C@@H]4[C@@]5(C)CC[C@H](O)C(C)(C)[C@@H]5CC[C@]43C)[C@H]12` [Compound 2, ursolic acid], the “ability to stimulate the chymotrypsin-like activity of the iCP” value in assay [1] was “showed an effect; also recorded: stimulate the chymotrypsin-like activity of the iCP significantly”. For the same compound, in assay [2], the “primary hit status with the 4-amino acid reporter Suc-LLVY-AMC” value was “would not have been considered primary hits”. Further, the “ability to stimulate the 26S proteasome's CT-L activity” value in assay [3] was “Neither molecules 2 or 3 affected the rate”.
As to `Cc1c(C)c2c(c(C)c1OC(=O)CCC(=O)O)CC[C@@](C)(CCC[C@H](C)CCC[C@H](C)CCCC(C)C)O2` [Compound 3, vitamin E succinate], in assay [1], the “ability to stimulate the chymotrypsin-like activity of the iCP” value is listed as “showed an effect; also recorded: stimulate the chymotrypsin-like activity of the iCP significantly”. The “primary hit status with the 4-amino acid reporter Suc-LLVY-AMC” value in assay [2] was “would not have been considered primary hits”. In assay [3], the “ability to stimulate the 26S proteasome's CT-L activity” value is listed as “Neither molecules 2 or 3 affected the rate”.

(Values after US11092596B2, “Material and method to screen proteasome stimulators” (Purdue Research Foundation, priority 2017, dated 2021).)
